Assay results from patent US20110065796A1 (SHIRE LLC, priority 2009, published 2011).
Counter-ions that a name gives are not always drawn. Like-named read-outs stand apart in the source and are kept apart here.

What was measured:
[1] = Prodrug stability in freshly withdrawn porcine intestinal fluid; format: in vitro ADME; conditions: for Prodrug remaining at 3 h: porcine intestinal fluid pH 6.8, 37° C., in % (unit assumed)
Excerpt: Many of the peptidases in the intestinal lumen may not be present in the USP simulated intestinal fluid preparations previously described. […] The prodrugs evaluated were selected on the basis of adequate pharmacokinetics (see Example 8).

[2] = system: gastrointestinal transit of a charcoal meal in the rat; assay: Charcoal propulsion test (gut motility) in rat; format: in vivo; conditions: oral
Experimental: The effect of a drug on gut motility can be studied by means of the charcoal propulsion test.
The method used was based on that described by Takemori et al. (J. Pharmacol. Exp. Ther. 169:39, 1969). Test treatments were administered orally 60 minutes prior to an oral dose of a 10% suspension of charcoal in 2.5% gum Arabic (2 ml/kg). Twenty minutes after dosing with charcoal, the rats were sacrificed and the entire gastrointestinal tract was removed quickly and carefully. The distance that the charcoal meal had traveled toward the caecum was measured and expressed as a percentage of the total gut length.

[3] = Prodrug stability in simulated gastric fluid; conditions: 37° C., pH 1.1, HPLC
Experimental: (§1) The remaining concentrations of the prodrugs were then assayed by H PLC.

[4] = Pharmacokinetics in rat hepatic portal and tail veins after oral administration; format: in vivo
Experimental: Rats were surgically prepared under isofluorane anaesthesia by attaching a silicon catheter to the portal vein then exteriorising it at the nape of the neck with a blood collection port attached.
At each sampling time serial point blood samples (approximately 0.2 mL) were taken simultaneously from the lateral tail vein cannula and the hepatic portal cannula. After collection of the final blood sample each animal was killed by cervical dislocation. Blood samples were collected at 15, 30 minutes and 1, 2, 4, 8 and 24 hours post dose.
Pharmacokinetic parameters in portal and systemic plasma were derived by non-compartmental analysis (linear/logarithmic trapezoidal) using WinNonlin (Version 4.1) software.

[5] = Comparative pharmacokinetic screening study in the monkey (relative Cmax of guanfacine); conditions: for prodrug levels in plasma (in words): oral gavage, monkey screening study
Experimental: Blood samples were taken on 4 sampling occasions at various times up to 6 hours after administration and submitted to analysis for the parent drug and prodrug using a qualified LC-MS-MS assay.

[6] = Prodrug stability in simulated intestinal fluid; conditions: 37° C., pH 6.8, HPLC
Experimental: as §1

human α-2A adrenoceptor = molecular target: T1, human α-2A adrenoceptor (Homo sapiens, UniProt P08913); assay: α-2A adrenoceptor binding assay ([3H] RX821002 competition, recombinant CHO cells); conditions: [3H] RX821002 (1 nM)
T1 construct: expressed in transfected cells; host or cells: CHO cells
T1 sequence (P08913 1-465): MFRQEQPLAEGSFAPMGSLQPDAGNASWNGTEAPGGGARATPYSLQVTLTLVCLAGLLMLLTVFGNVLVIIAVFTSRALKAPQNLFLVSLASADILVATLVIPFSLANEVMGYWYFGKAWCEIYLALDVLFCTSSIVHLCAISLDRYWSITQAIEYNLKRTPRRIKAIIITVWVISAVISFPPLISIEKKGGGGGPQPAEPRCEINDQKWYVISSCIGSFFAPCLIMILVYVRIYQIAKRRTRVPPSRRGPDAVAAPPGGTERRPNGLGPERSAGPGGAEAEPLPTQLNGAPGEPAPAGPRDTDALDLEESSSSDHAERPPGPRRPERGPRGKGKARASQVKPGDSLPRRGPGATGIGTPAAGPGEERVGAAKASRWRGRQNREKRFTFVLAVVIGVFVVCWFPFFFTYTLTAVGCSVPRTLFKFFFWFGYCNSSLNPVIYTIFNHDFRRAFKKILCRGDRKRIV
Experimental: The activation of this receptor is responsible for its intended therapeutic effect.
The binding assay methodology employed in this study followed that described by Langin et al. (Eur. J. Pharmacol. 167:95-104, 1989) and used human recombinant CHO cells expressing α-2 adrenoceptors. The competitive binding ligand was [3H] RX821002 (1 nM) which has a high affinity for the alpha-2A subtype.

[7] = Comparative bioavailability study of guanfacine in monkeys given guanfacine or prodrug conjugates; format: in vivo, cynomolgus monkey; conditions: oral, monkey
Experimental: The characteristics of the test animals are set out in Table 13.
The following pharmacokinetic parameters derived from the plasma analytical data were determined using Win Nonlin;

[8] = Comparative bioavailability study in monkeys in the fasted or fed state; format: in vivo, cynomolgus monkey; conditions: for Cmax: male, cynomolgus monkey, plasma, po, 0.5 mg/kg, read-out: mean Cmax prodrug
Experimental: Five male cynomolgus monkeys were used. Food was withdrawn from animals in fasted groups from the evening of the day prior to dosing until approximately 4 hours after dosing.
The formulations were prepared on the day of dosing and administered orally as soon as practicable up to a maximum of 2 hours after formulation.
Blood samples (0.5 mL) were collected from all animals pre-dose and at 0.5, 1, 2, 3, 4, 6, 8 10, 12, 16 and 24 hours after dosing.
Following processing, the resultant plasma was frozen and analysed by a qualified method. Pharmacokinetic evaluation was performed using a validated pharmacokinetic software package.

[9] = cited from earlier work
[10] = Study 2, dose 0.1 mg/kg guanfacine free base equivalents
[11] = Study 2, dose 0.3 mg/kg guanfacine free base equivalents
[12] = Study 2, dose 0.5 mg/kg guanfacine free base equivalents
[13] = hepatic portal vein plasma, po, 1 mg/kg, read-out: Hepatic portal vein Prodrug AUC
[14] = hepatic portal vein plasma, po, 1 mg/kg, read-out: Hepatic portal vein Prodrug Cmax
[15] = tail vein (systemic) plasma, po, 1 mg/kg, read-out: Tail vein Prodrug AUC
[16] = tail vein (systemic) plasma, po, 1 mg/kg, read-out: Tail vein Prodrug Cmax
[17] = Study 1, dose 0.1 mg/kg guanfacine free base equivalents
[18] = Study 1, dose 0.3 mg/kg guanfacine free base equivalents
[19] = Study 1, dose 1 mg/kg guanfacine free base equivalents
[20] = Study 1, dose 3 mg/kg guanfacine free base equivalents
[21] = Study 1, dose 5 mg/kg guanfacine free base equivalents
[22] = Fasted, 0.5 mg/kg guanfacine equivalent dose, oral

CNCC(=O)N[C@H](C(=O)O)[C@@H](C)OC(=O)NC(=N)NC(=O)Cc1c(Cl)cccc1Cl [Compound 63, Guanfacine ((R,S)-Threonine-Sarcosine) Carbamate]
stability in porcine intestinal fluid (in words) [1]: high stability | Prodrug remaining at 3 h [1]: 95.04 ± 9.25 | % change in GI transit vs vehicle [2, 10]: 0% | % change in GI transit vs vehicle [2, 11]: −13% | % change in GI transit vs vehicle [2, 12]: −49% | % prodrug remaining following incubation for 1 h in simulated gastric fluid pH 1.1 [3]: 86% | AUC [4, 13]: 66.5 ng·h/mL | Cmax [4, 14]: 23.7 ng/mL | comparative systemic exposure to guanfacine vs guanfacine at an equimolar dose (in words) ([4]; oral): similar | AUC [4, 15]: 20.2 ng·h/mL | Cmax [4, 16]: 9.37 ng/mL | prodrug levels in plasma (in words) [5]: detectable prodrug levels in plasma | % prodrug remaining following incubation for 2 h in simulated intestinal fluid pH 6.8 [6]: 99%

CC(C)[C@@H](N)C(=O)N[C@@H](CCC(=O)NC(=N)NC(=O)Cc1c(Cl)cccc1Cl)C(=O)O [Compound 5, Guanfacine ((S)-γ-Glutamate-(R)-Valine) Amide]
Ki (human α-2A adrenoceptor): 1600 nM | Prodrug remaining at 3 h [1]: 91.2 | % change in GI transit vs vehicle [2, 17]: −6% | % change in GI transit vs vehicle [2, 18]: −22% | % change in GI transit vs vehicle [2, 19]: −48% | % change in GI transit vs vehicle ([2]; Study 1, dose 1.7 mg/kg guanfacine free base equivalents): −50% | % change in GI transit vs vehicle [2, 20]: −44% | % change in GI transit vs vehicle [2, 21]: −42% | plasma guanfacine profile (in words) [7]: sustained guanfacine concentrations | % prodrug remaining following incubation for 1 h in simulated gastric fluid pH 1.1 [3]: 86% | AUC [4, 13]: 61 ng·h/mL | Cmax [4, 14]: 41.5 ng/mL | AUC [4, 15]: 4.6 ng·h/mL | Cmax [4, 16]: 3.5 ng/mL | % prodrug remaining following incubation for 2 h in simulated intestinal fluid pH 6.8 [6]: 89%

C[C@@H](N)C(=O)N[C@@H](CCC(=O)NC(=N)NC(=O)Cc1c(Cl)cccc1Cl)C(=O)O [Compound 41, Guanfacine ((S)-γ-Glutamate-(R)-Alanine) Amide]
Ki (human α-2A adrenoceptor): 1700 nM | stability in porcine intestinal fluid (in words) [1]: high stability | Prodrug remaining at 3 h [1]: 89.70 ± 3.60 | % prodrug remaining following incubation for 1 h in simulated gastric fluid pH 1.1 [3]: 70% | AUC [4, 13]: 43.5 ng·h/mL | Cmax [4, 14]: 31.9 ng/mL | AUC [4, 15]: 8 ng·h/mL | Cmax [4, 16]: 6.14 ng/mL | prodrug levels in plasma (in words) [5]: detectable prodrug levels in plasma | % prodrug remaining following incubation for 2 h in simulated intestinal fluid pH 6.8 [6]: 83%

CC(C)[C@H](N)C(=O)NCCC(=O)NC(=N)NC(=O)Cc1c(Cl)cccc1Cl [Compound 2, Guanfacine (β-Alanine-(S)-Valine) Amide]
Ki (human α-2A adrenoceptor): 1200 nM | stability in porcine intestinal fluid (in words) [1]: intermediate stability | Prodrug remaining at 3 h [1]: 77.8 | % change in GI transit vs vehicle [2, 17]: +3% | % change in GI transit vs vehicle [2, 18]: −30% | % change in GI transit vs vehicle [2, 19]: −42% | % change in GI transit vs vehicle [2, 20]: −42% | % change in GI transit vs vehicle [2, 21]: −42% | mean Cmax prodrug [8, 22]: BLQ | Cmax [8]: 2.15 ng/mL | % prodrug remaining following incubation for 1 h in simulated gastric fluid pH 1.1 [3]: 75% | AUC [4, 13]: 19.2 ng·h/mL | Cmax [4, 14]: 46.4 ng/mL | AUC [4, 15]: 2.67 ng·h/mL | Cmax [4, 16]: 4.2 ng/mL | prodrug levels in plasma (in words) [5]: detectable prodrug levels in plasma | % prodrug remaining following incubation for 2 h in simulated intestinal fluid pH 6.8 [6]: 89%

CC(C)[C@@H](N)C(=O)NCCC(=O)NC(=N)NC(=O)Cc1c(Cl)cccc1Cl [Compound 11, Guanfacine (β-Alanine-(R)-Valine) Amide]
stability in porcine intestinal fluid (in words) [1]: high stability | Prodrug remaining at 3 h [1]: 91.3 ± 2.6 | % prodrug remaining following incubation for 1 h in simulated gastric fluid pH 1.1 [3]: 79% | prodrug levels in plasma (in words) [5]: detectable prodrug levels in plasma | % prodrug remaining following incubation for 2 h in simulated intestinal fluid pH 6.8 [6]: 104%

N=C(N)NC(=O)Cc1c(Cl)cccc1Cl [Guanfacine, N-Amidino-2-(2,6-dichlorophenyl)acetamide monohydrochloride, reference compound]
bioavailability of guanfacine in man [9]: > 80% | % change in GI transit vs vehicle [2, 17]: −52% | % change in GI transit vs vehicle [2, 18]: −55% | % change in GI transit vs vehicle [2, 19]: −47% | % change in GI transit vs vehicle ([2]; Study 2, dose 0.03 mg/kg guanfacine free base equivalents): −13% | % change in GI transit vs vehicle [2, 10]: −41% | % change in GI transit vs vehicle [2, 11]: −56% | reduction in the distance traveled by the charcoal plug within 20 minutes, compared to control group ([2]; 0.1 mg base/kg): 41-52% | bioavailability ([5]; cynomolgus monkey, in vivo, po): 35%

CC(C)[C@H](N)C(=O)N[C@@H](COC(=O)NC(=N)NC(=O)Cc1c(Cl)cccc1Cl)C(=O)O [Compound 17, Guanfacine ((S)-Serine-(S)-Valine) Carbamate]
stability in porcine intestinal fluid (in words) [1]: very unstable | % prodrug remaining following incubation for 1 h in simulated gastric fluid pH 1.1 [3]: 93% | prodrug levels in plasma (in words) [5]: total absence of prodrug in the plasma | % prodrug remaining following incubation for 2 h in simulated intestinal fluid pH 6.8 [6]: 78%

CC(C)[C@H](NC(=O)CCCC(=O)NC(=N)NC(=O)Cc1c(Cl)cccc1Cl)C(=O)O [Compound 1, Guanfacine (Glutaryl-(S)-Valine) Amide]
Ki (human α-2A adrenoceptor): 7200 nM | stability in porcine intestinal fluid (in words) [1]: high stability | Prodrug remaining at 3 h [1]: 100.6 | % change in GI transit vs vehicle [2, 17]: −9% | % change in GI transit vs vehicle [2, 18]: −6% | % change in GI transit vs vehicle [2, 19]: −45% | % change in GI transit vs vehicle [2, 20]: −50% | % change in GI transit vs vehicle [2, 21]: −53% | plasma guanfacine profile (in words) [7]: sustained guanfacine concentrations | Cmax [8, 22]: 9.23 ng/mL | Cmax ([8]; Fed, 0.5 mg/kg guanfacine equivalent dose, oral): 7.19 ng/mL | % prodrug remaining following incubation for 1 h in simulated gastric fluid pH 1.1 [3]: 80% | AUC ([4]; hepatic portal vein plasma, oral, 0.5 mg/kg (footnote *), read-out: Hepatic portal vein Prodrug AUC): 159 ng·h/mL | Cmax ([4]; hepatic portal vein plasma, oral, 0.5 mg/kg (footnote *), read-out: Hepatic portal vein Prodrug Cmax): 56.3 ng/mL | AUC ([4]; tail vein (systemic) plasma, oral, 0.5 mg/kg (footnote *), read-out: Tail vein Prodrug AUC): 29.6 ng·h/mL | Cmax ([4]; tail vein (systemic) plasma, oral, 0.5 mg/kg (footnote *), read-out: Tail vein Prodrug Cmax): 8.26 ng/mL | % prodrug remaining following incubation for 2 h in simulated intestinal fluid pH 6.8 [6]: 92%

CNCC(=O)N[C@@H](COC(=O)NC(=N)NC(=O)Cc1c(Cl)cccc1Cl)C(=O)O [Compound 61, Guanfacine ((S)-Serine-Sarcosine) Carbamate]
Ki (human α-2A adrenoceptor): 10000 nM | stability in porcine intestinal fluid (in words) [1]: intermediate stability | Prodrug remaining at 3 h [1]: 66.86 ± 2.10 | % change in GI transit vs vehicle [2, 10]: −8% | % change in GI transit vs vehicle [2, 11]: −25% | % change in GI transit vs vehicle [2, 12]: −31% | % prodrug remaining following incubation for 1 h in simulated gastric fluid pH 1.1 [3]: 92% | AUC [4, 13]: 51.8 ng·h/mL | Cmax [4, 14]: 43.4 ng/mL | comparative systemic exposure to guanfacine vs guanfacine at an equimolar dose (in words) ([4]; oral): similar | AUC [4, 15]: 5.09 ng·h/mL | Cmax [4, 16]: 7.07 ng/mL | prodrug levels in plasma (in words) [5]: detectable prodrug levels in plasma | % prodrug remaining following incubation for 2 h in simulated intestinal fluid pH 6.8 [6]: 96%
